# Laboratory results taken from paper PMC8957246, “Synthesis and diverse biological activity profile of triethylammonium isatin-3-hydrazones” (ADMET & DMPK, 2022).
# Where a name gives a salt, the structure may show the parent alone. Read-outs that look alike come from different tables or passages of the source. Marks after values point to notes of the source that are not given here.
# Experiments:
# [1] = tested on: Enterococcus faecalis ATCC 29212; assay: Antimicrobial activity, serial dilution (MIC/MBC), Ef; assay type: cell-based; conditions: ATCC29212
# Experimental: (§1) The antimicrobial activity of the test compounds was determined by the serial dilution technique in Muller Hinton Broth 2 and in Sabouradu broth for fungi. The cultures used for testing included Gram-positive bacteria: Staphylococcus aureus ATCC 6538P FDA 209P, Bacillus cereus ATCC 10702 NCTC 8035, Enterococcus faecalis ATCC 29212; Gram-negative bacteria: Escherichia coli ATCC 25922, Pseudomonas aeruginosa ATCC 9027, and fungi: Trichophyton mentagrophytes var. gypseum 1773, and Candida albicans ATCC 10231; methicillin-resistant strains of S. aureus (MRSA) was obtained from hospital patients with chronic tonsillitis in the Republican Clinical Hospital (Kazan, Russia). The bacterial load was 3.0 × 10^5 cfu/ml. The fungi load was 2.0 × 10^3 cfu/ml. The results were recorded every 24 h for 5-7 days. Cultures were incubated at 37 °C. The experiment was repeated three times. […] The minimum inhibitory concentration (MIC) was defined as the minimum concentration of a compound that inhibits the growth of the corresponding test microorganism. The growth of bacteria, as well as the absence of the growth due to the bacteriostatic action of compounds, were recorded.
# (§2) Synthesized compounds were further evaluated for antimicrobial activity against test microorganisms: Staphylococcus aureus ATCC 209p (Sa), Bacillus cereus ATCC 8035 (Bc), Escherichia coli CDC F-50 (Ec), Enterococcus faecalis (Ef), Pseudomonas aeruginosa ATCC 9027, Aspergillus niger BKMF-1119, Trichophyton mentagrophytes var. gypseum 1773, and Candida albicans 855-653 including methicillin-resistant strains of S. aureus (MRSA 1 and MRSA 2). The minimum inhibitory (MIC) and minimum bactericidal (MBC) concentrations of ammonium salts were determined against these pathogens (Table 1). Due to the lack of activity of compounds 3a-g against Gram-negative bacterial strains and some fungi, the corresponding data are not shown.
# [2] = tested on: methicillin-resistant strains of S. aureus (MRSA-1); assay: Antimicrobial activity, serial dilution (MIC/MBC), MRSA-1; assay type: cell-based; conditions: Staphylococcus aureus
# Experimental: as §1, §2
# [3] = tested on: platelets (collagen-induced aggregation); assay: Platelet aggregation (Born method), collagen-induced; assay type: cell-based; conditions: Homo sapiens, collagen 5 mg/mL, final concentration 2×10^–3 mol/L, median (25-75 percentiles), read-out: Platelets aggregation, % of control, Collagen
# Experimental: (§3) The in vitro experiments were performed using the blood of healthy male donors aged 18-24 years (total 54 donors). The study was approved by the Ethics Committee of Federal State Budgetary Educational Institution of Higher Education at the Bashkir State Medical University of the Ministry of Health of Russian Federation (No.2 dated 17.10.2012). Informed consent was obtained from all participants before blood sampling. The blood was collected from the cubital vein using the system of vacuum blood collection BD Vacutainer® (Becton, Dickinson and Company, USA). A 3.8 % sodium citrate solution in a 9:1 ratio was used as a venous blood stabiliser. The study of the effect on platelet aggregation was performed using the Born method using the aggregometer «AT-02» (SPC Medtech, Russia). The assessment of antiplatelet activity of the studied compounds and reference preparations was started with the final concentration of 2×10^–3 mol/L. Adenosine diphosphate (ADP; 20 μg/mL) and collagen (5 mg/mL) manufactured by Tehnologia-Standart Company, Russia, were used as inducers of aggregation. The study on the anticoagulant activity was performed by standard recognised clotting tests using the optical two-channel automatic analyser of blood coagulation Solar CGL 2110 (CJSC SOLAR, Belarus). The following parameters were studied: activated partial thromboplastin time (APTT), prothrombin time (PT) and fibrinogen concentrations according to the Clauss method. The determination of anticoagulant activity of the studied compounds and reference preparation was performed in a concentration of 5×10^–4 g/mL using the reagents manufactured by Tehnologia-Standart Company (Barnaul, Russia). The results of the study were processed using the statistical package Statistica 10.0 (StatSoft Inc, USA). The Shapiro–Wilk’s test was used to check the normality of actual data distribution. The form of distribution of the data obtained differed from the normal one; therefore, non-parametric methods were used for further analysis. The data were presented as medians and 25 and 75 percentiles. Analysis of variance was conducted using Kruskal–Wallis test. A p value of 0.05 was considered statistically significant.
# human erythrocytes = assay: Hemolytic activity; assay type: cell-based; conditions: compared within series 3a-g and reference drug
# Experimental: Hemolytic activity of test compounds was estimated by comparing the optical density of a solution containing the test compound with that of blood at 100 % hemolysis. The experiments were carried out as described earlier.
# An important step in the determination of the biological activity of new chemical compounds is the assessment of their cytotoxic action in relation to mammalian cells. The ability of the investigated compound to cause the destruction of human erythrocytes illustrates its toxic effect on the internal environment of the body. The hemolysis assay is a simple screening test, the results of which can help in the study of cytotoxicity in more complex models. Such experimental models can be the cell lines obtained from various organs and tissues of a person and allowing to adequately assessing the effect of new potential drugs on cell metabolism.
# [4] = tested on: activated partial thromboplastin time (intrinsic coagulation pathway); assay: Anticoagulant activity, clotting test APTT; design: species or system human; conditions: concentration 5×10^–4 g/mL; median (25-75 percentiles)
# Experimental: as §3
# [5] = tested on: methicillin-resistant strains of S. aureus (MRSA-2); assay: Antimicrobial activity, serial dilution (MIC/MBC), MRSA-2; assay type: cell-based; conditions: Staphylococcus aureus
# Experimental: as §1, §2
# [6] = tested on: Bacillus cereus ATCC 10702 NCTC 8035; assay: Antimicrobial activity, serial dilution (MIC/MBC), Bc; assay type: cell-based
# Experimental: as §1, §2
# [7] = tested on: platelets (ADP-induced aggregation); assay: Platelet aggregation (Born method), ADP-induced; assay type: cell-based; conditions: Homo sapiens, ADP 20 μg/mL, final concentration 2×10^–3 mol/L, median (25-75 percentiles), read-out: Platelets aggregation, % of control, ADP
# Experimental: as §3
# [8] = tested on: Staphylococcus aureus ATCC 6538P FDA 209P; assay: Antimicrobial activity, serial dilution (MIC/MBC), Sa; assay type: cell-based; conditions: Staphylococcus aureus
# Experimental: as §1, §2
# [9] = tested on: Candida albicans ATCC 10231; assay: Antimicrobial activity, serial dilution (MIC/MBC), Ca; assay type: cell-based; conditions: ATCC10231
# Experimental: as §1, §2
# [10] = tested on: Chang liver cell line (Human liver cells); conditions: reference drug compared with 3a-g
compound,measurement,setting,value
"CC[N+](CC)(CC)CC(=O)N/N=C1\C(=O)N(Cc2cc(C(C)(C)C)c(O)c(C(C)(C)C)c2)c2c(C)cccc21 [Compound 3b, 2-(2-(1-(3,5-Di-tert-butyl-4-hydroxybenzyl)-7-methyl-2-oxoindolin-3-ylidene)hydrazinyl)-N,N,N-triethyl-2-oxoethanammonium bromide]",MBC,[1],> 500 µM
same,MIC,[1],> 500 µM
same,MBC,[2],203 µM
same,MIC,[2],50.8 ± 4.1 µM
same,inhibition at 2000 µM,[3],10.3%
same,toxicity to red blood cells (in words),human erythrocytes,least toxic
same,"APTT, % of control",[4],"+7.3 (6.5-9.6) ^*, ^† % of control"
same,MBC,[5],50.8 µM
same,MIC,[5],25.4 ± 2.3 µM
same,MIC,[6],25.4 ± 1.9 µM
same,MBC,[6]; Bacillus cereus,203 µM
same,MIC,"[6]; Bacillus cereus, read-out: MIC",~25 µM
same,inhibition at 2000 µM,[7],9.7%
same,MIC,[8],3.2 ± 0.2 µM
same,MBC,[8]; read-out: MBC (converted),25.4 µM
same,MBC,[9],> 500 µM
same,MIC,[9],> 500 µM
gramicidin S [reference compound],toxicity to red blood cells (in words),human erythrocytes,much more toxic
"CC[N+](CC)(CC)CC(=O)N/N=C1\C(=O)N(Cc2cc(C(C)(C)C)c(O)c(C(C)(C)C)c2)c2c(C)cccc21 (as salt: bromide) [Compound 3b, 2-(2-(1-(3,5-Di-tert-butyl-4-hydroxybenzyl)-7-methyl-2-oxoindolin-3-ylidene)hydrazinyl)-N,N,N-triethyl-2-oxoethanammonium bromide]",melting point,,154 °C
COc1cccc2c1C(=O)c1c(O)c3c(c(O)c1C2=O)C[C@@](O)(C(=O)CO)C[C@@H]3O[C@H]1C[C@H](N)[C@H](O)[C@H](C)O1 [doxorubicin],toxicity to liver cells (in words),[10],much more toxic
"CC[N+](CC)(CC)CC(=O)N/N=C1\C(=O)N(Cc2cc(C(C)(C)C)c(O)c(C(C)(C)C)c2)c2cccc(Br)c21 (as salt: bromide) [Compound 3e, 2-(2-(1-(3,5-Di-tert-butyl-4-hydroxybenzyl)-4-bromo-2-oxoindolin-3-ylidene)hydrazinyl)-N,N,N-triethyl-2-oxoethanammonium bromide]",melting point,,194 °C
